These results are taken from patent publication US8415372B2, “Sulfonamide compound” (Asahi Kasei Pharma Corporation, priority 2007, dated 2013).

For test [1], the system named is rabbit normal intraocular pressure. Kind of test: Intraocular pressure reducing action (Test Example 3). The conditions noted are these: Oryctolagus cuniculus, topical; 3 mM aqueous solution, 50 μl to the left eye; max difference of left and right eyes at 2, 4 and 6 hours relative to value before administration; read-out: Intraocular pressure reducing degree. It counts as in vivo, Japanese white rabbit. As to the method:
A Japanese white rabbit having a body weight of about 2 kg was placed in a positioner and naturalized for one week before the experiment. An ophthalmologic local anesthesant (Benoxil) was administered to both eyes, and then intraocular pressure was measured by using a tonometer (Classic 30, Solan). A 3 mM aqueous solution of a test compound was administered in a volume of 50 μl to the left eye, and the right eye was not treated (control eye). The intraocular pressure values were measured for the left and right eyes immediately before, and 2, 4 and 6 hours after the administration of the aqueous solution of the test compound, and the difference of the measured values for the left and right eyes was considered an intraocular pressure reduction value of the test medicament at each measurement time. The largest difference of the values for the left and right eyes among the measured values at the measurement times (after 2, 4 and 6 hours) was considered the maximum intraocular pressure reduction value (max ? IOP) of each test medicament. The intraocular pressure reducing degree representing the intraocular pressure reducing action of each test medicament was calculated according to the following formula. Since rabbits show significant daily variation of intraocular pressure, daily variation is added when change of intraocular pressure is measured over time, and the intraocular pressure reducing action may be overestimated. Therefore, we used this calculation method of intraocular pressure reduction value in order to minimize the influence of the variation. Intraocular pressure reducing degree(%)=(max ? IOP/Intraocular pressure value immediately before administration)×100

For test [2], the system named is monkey intraocular pressure. In words: Intraocular pressure reduction enhancing action in monkey (Test Example 8). The conditions noted are these: cynomolgus monkey. Format: in vivo. As to the method: As for the test compound used for combination use, similar effect can be obtained also with the compounds of the present invention represented with the example numbers mentioned in Test Example 3. The test is performed by using cynomolgus monkeys sufficiently naturalized for the operation of fixation on a monkey chair and intraocular pressure measurement.
As the test compound, the 19-1 compound was dissolved in physiological saline, and the solution is neutralized by addition of sodium hydroxide (pH 7.0 to 8.0) to prepare a 0.01 weight % aqueous solution (19-1 compound aqueous solution). As a drug for combination use, latanoprost (trade name: Xalatan, Pfizer) is used as the marketed formulation per se. The test aqueous solution or the drug for combination use is instilled to the left eye, and the right eye is not treated (control eye). […] After initial intraocular pressure values of the monkeys are measured for each group, 30 μL of physiological saline is instilled to the control group, single drug group 1, and single drug group 2, and latanoprost is instilled in the same volume to the combination use group. […] Then, the intraocular pressure is measured over time for each group.

Each structure is given as a SMILES string.

Consider `CN[C@H]1CCN(S(=O)(=O)c2cccc3cncc(C)c23)C1` [Example 8-3], for which, in test [1], the inhibition in vivo at 3000 µM is at least 20%. Same read-out and setting: for `O=S(=O)(c1cccc2cncc(Cl)c12)N1CC[C@H](NCc2ccco2)C1` [Example 19-14] the value was 5 to 10%; for `Cc1cncc2cccc(S(=O)(=O)N3CCC(NC4CCCCC4)C3)c12` (stereo not drawn) [Example 8-30], 5 to 10%.

With `N[C@H]1CCN(S(=O)(=O)c2cccc3cncc(Cl)c23)C1` [Example 19-1, (S)-3-Amino-1-(4-chloro-5-isoquinolinesulfonyl)pyrrolidine], the “Intraocular pressure reducing action, combination use group” value in test [2] (30 μL latanoprost (Xalatan) then 30 μL 19-1 compound aqueous solution, compared with single drug groups) is “exceeding those of both the single drug group 1 and single drug group 2”. Moreover, in test [2] (30 μL of 0.01 weight % aqueous solution, compared with control group), the “Intraocular pressure reducing action, single drug group 1” value was “exceeding that of the control group”. In the case of `Cn1cccc1CNC1CCN(S(=O)(=O)c2cccc3cncc(Br)c23)C1` (stereo not drawn) [Example 1-20], the inhibition in vivo at 3000 µM in test [1] is 10 to 20%.

Regarding `NCCNC1CCN(S(=O)(=O)c2cccc3cncc(Br)c23)C1` (stereo not drawn) [Example 1-31], the inhibition in vivo at 3000 µM in test [1] fell in the range of 10 to 20%.

With `CN[C@H]1CCN(S(=O)(=O)c2cccc3cncc(Cl)c23)C1` [Example 19-3, (S)-1-(4-Chloro-5-isoquinolinesulfonyl)-3-(methylamino)pyrrolidine], the inhibition in vivo at 3000 µM in test [1] is at least 20%. As to `Cc1cncc2cccc(S(=O)(=O)N3CCC(NC(C)C)C3)c12` (stereo not drawn) [Example 8-27], in test [1], the inhibition in vivo at 3000 µM fell in the range of 10 to 20%. Still for that read-out and setting: then `Cc1cncc2cccc(S(=O)(=O)N3CCC(NCCN)C3)c12` (stereo not drawn) [Example 8-32], with 5 to 10%. As to `Cc1cncc2cccc(S(=O)(=O)N3CCC(NCCc4ccccc4)C3)c12` (stereo not drawn) [Example 8-37], in test [1], the inhibition in vivo at 3000 µM lay within 5 to 10%.

With `CCN[C@H]1CCN(S(=O)(=O)c2cccc3cncc(Cl)c23)C1` [Example 19-4], in test [1], the inhibition in vivo at 3000 µM was at least 20%.

Turning to `Cc1nc(CNC2CCN(S(=O)(=O)c3cccc4cncc(Br)c34)C2)c[nH]1` (stereo not drawn) [Example 1-19], in test [1], the inhibition in vivo at 3000 µM was 5 to 10%. For `C=CCNC1CCN(S(=O)(=O)c2cccc3cncc(C)c23)C1` (stereo not drawn) [Example 8-34], the inhibition in vivo at 3000 µM in test [1] fell in the range of 5 to 10%.

In the case of `Cc1cncc2cccc(S(=O)(=O)N3CCC(NC4CCCC4)C3)c12` (stereo not drawn) [Example 8-29], the inhibition in vivo at 3000 µM in test [1] is 5 to 10%. Same read-out and setting: for `Cc1cncc2cccc(S(=O)(=O)N3CCC(NC4CCC4)C3)c12` (stereo not drawn) [Example 8-28] the value was 5 to 10%. As to `Cc1cncc2cccc(S(=O)(=O)N3CCC(NC4CCOCC4)C3)c12` (stereo not drawn) [Example 8-31], the inhibition in vivo at 3000 µM in test [1] lay in the range of 10 to 20%. Same read-out and setting: for `C#Cc1cncc2cccc(S(=O)(=O)N3CC[C@H](NCc4ccco4)C3)c12` [Example 10-14] the value was 5 to 10%; for `O=S(=O)(c1cccc2cncc(Cl)c12)N1CC[C@H](NC2CCOCC2)C1` [Example 19-31], at least 20%. On the same count and under the same terms, for `C#Cc1cncc2cccc(S(=O)(=O)N3CC[C@H](NC4CCOCC4)C3)c12` [Example 10-31] the value was at least 20%; for `Cn1cccc1CN[C@H]1CCN(S(=O)(=O)c2cccc3cncc(Cl)c23)C1` [Example 19-21], at least 20%. On to `CN[C@H]1CCN(S(=O)(=O)c2cccc3cncc(Br)c23)C1` [Example 1-3, (S)-1-(4-Bromo-5-isoquinolinesulfonyl)-3-(methylamino)pyrrolidine], for which the inhibition in vivo at 3000 µM in test [1] is at least 20%.

For `O=S(=O)(c1cccc2cncc(Cl)c12)N1CC[C@H](NCc2cccs2)C1` [Example 19-17], in test [1], the inhibition in vivo at 3000 µM was in the range of 5 to 10%.

Turning to `COc1ccc(CN[C@H]2CCN(S(=O)(=O)c3cccc4cncc(Br)c34)C2)cc1` [Example 1-7], the inhibition in vivo at 3000 µM in test [1] lay in the range of 5 to 10%.
